Test: in vivo
Settings: BALB/c, mouse, sc; for AUC(0-t): AUC0–24

O=C1c2c(O)c(=O)ccn2N([C@@H]2c3ccccc3SCc3c2ccc(F)c3F)[C@@H]2COCCN12 [baloxavir acid]
AUC(0-t) (0.125 mg/kg): 267 ng·h/mL
Cmax (0.125 mg/kg): 18.7 ng/mL
AUC(0-t) (0.25 mg/kg): 535 ng·h/mL
Cmax (0.25 mg/kg): 37.3 ng/mL
AUC(0-t) (0.5 mg/kg): 961 ng·h/mL
Cmax (0.5 mg/kg): 66.1 ng/mL
AUC(0-t) (1 mg/kg): 1810 ng·h/mL
Cmax (1 mg/kg): 124 ng/mL
Cmax (2 mg/kg): 222 ng/mL
Cmax (4 mg/kg): 417 ng/mL
AUC(0-t) (8 mg/kg): 6380 ng·h/mL
Cmax (8 mg/kg): 414 ng/mL
AUC(0-t) (16 mg/kg): 11100 ng·h/mL
Cmax (16 mg/kg): 726 ng/mL
AUC(0-t) (32 mg/kg): 8860 ng·h/mL
Cmax (32 mg/kg): 682 ng/mL
AUC(0-t) (64 mg/kg): 12600 ng·h/mL
Cmax (64 mg/kg): 938 ng/mL

From PMC10222987 (Viruses, 2023)
